{
  "source": "patent US20070032460A1",
  "about": "“Use of voacamine and related compounds in the treatment of malaria” (priority 2005, published 2007)",
  "key": {"[1]": {"tested_on": "CQ-sensitive (D6) strain of P. falciparum", "type": "cell-based"}, "[2]": {"details": "doses of 2000 and 5000 mg/day; cited from earlier work"}, "Plasmodium falciparum": {"tested_on": "Plasmodium falciparum", "details": "verapamil alone, without chloroquine; cited from earlier work"}, "[3]": {"details": "chloroquine-sensitive strain of P. falciparum, in vitro, Table V, read-out: IC50 (10^−7 M) S"}, "[4]": {"details": "Plasmodium falciparum, D6, chloroquine-sensitive strain of P. falciparum, in vitro, Table V, read-out: IC50 (10^−7 M) S"}},
  "note": "Read-outs that look alike come from different tables or passages of the source.",
  "data": [
    {"compound": "C[C@@H]1CC[C@H]2[C@@H](C)C(=O)O[C@@H]3O[C@@]4(C)CC[C@@H]1[C@]32OO4", "note": "[QHS, qinghaosu, reference compound]", "values": [
      {"measurement": "IC50", "setting": "[1]; S strain (D6), VOA/QHS ratio 10:1, read-out: IC50 of each drug in combination VOA (2.0 μM) QHS (0.2 μM)", "value": "14.6 ± 0.8", "unit": "nM"},
      {"measurement": "IC50", "setting": "[1]; S strain (D6), VOA/QHS ratio 10:3, read-out: IC50 of each drug in combination VOA (1.0 μM) QHS (0.3 μM)", "value": "25.9 ± 2.5", "unit": "nM"},
      {"measurement": "IC50", "setting": "[1]; S strain (D6), VOA/QHS ratio 30:1, read-out: IC50 of each drug in combination VOA (3.0 μM) QHS (0.1 μM)", "value": "9.7 ± 2.3", "unit": "nM"},
      {"measurement": "IC50", "setting": "[1]; S strain (D6), drug alone, Table II, mean ± S.D., three experiments, read-out: IC50, single drug", "value": "38.3 ± 4.7", "unit": "nM"}
    ]},
    {"compound": "N6Demethylvoacamine [NDV]", "values": [
      {"measurement": "IC50", "setting": "[1]; [3]", "value": 470, "unit": "nM"}
    ]},
    {"compound": "C/C=C1/CN(C)[C@H]2Cc3c([nH]c4ccccc34)C(=O)C[C@H]1[C@@H]2C(=O)OC", "note": "[VOB, Vobasine]", "values": [
      {"measurement": "IC50", "setting": "[1]; [4]", "value": 470, "unit": "nM"}
    ]},
    {"compound": "Ervahanine", "values": [
      {"measurement": "IC50", "setting": "[1]; [3]", "value": 680, "unit": "nM"}
    ]},
    {"compound": "Tabernamine", "values": [
      {"measurement": "IC50", "setting": "[1]; [3]", "value": 650, "unit": "nM"}
    ]},
    {"compound": "CC=C1CN(C)C2Cc3c([nH]c4ccccc34)C(c3cc4[nH]c5c(c4cc3OC)CCN3CC4CC(CC)C3C5(C(=O)OC)C4)CC1C2C(=O)OC", "note": "(centres unmarked) [VOA, Voacamine]", "values": [
      {"measurement": "toxicity in prior studies", "setting": "[2]", "value": "minimal toxicity"},
      {"measurement": "IC50", "setting": "[1]; Plasmodium falciparum, D6, read-out: IC50 (10^−7 M) S, chloroquine-sensitive strain of P. falciparum, in vitro, Table V", "value": 240, "unit": "nM"},
      {"measurement": "IC50", "setting": "[1]; Plasmodium falciparum, D6, read-out: IC50, single drug, S strain (D6), drug alone, Table 1, mean ± S.D., three experiments", "value": "238 ± 23.7", "unit": "nM"},
      {"measurement": "IC50", "setting": "[1]; Plasmodium falciparum, D6, read-out: IC50, single drug, S strain (D6), drug alone, Table II, mean ± S.D., three experiments", "value": "298 ± 59.8", "unit": "nM"},
      {"measurement": "IC50", "setting": "[1]; Plasmodium falciparum, D6, read-out: IC50 of each drug in combination VOA (1.0 μM) CQ (0.3 μM), S strain (D6), VOA/CQ ratio 10:3", "value": "56.9 ± 8.2", "unit": "nM"},
      {"measurement": "IC50", "setting": "[1]; Plasmodium falciparum, D6, read-out: IC50 of each drug in combination VOA (1.0 μM) QHS (0.3 μM), S strain (D6), VOA/QHS ratio 10:3", "value": "87.2 ± 9.5", "unit": "nM"},
      {"measurement": "IC50", "setting": "[1]; Plasmodium falciparum, D6, read-out: IC50 of each drug in combination VOA (2.0 μM) CQ (0.2 μM), S strain (D6), VOA/CQ ratio 10:1", "value": "114 ± 25.1", "unit": "nM"},
      {"measurement": "IC50", "setting": "[1]; Plasmodium falciparum, D6, read-out: IC50 of each drug in combination VOA (2.0 μM) QHS (0.2 μM), S strain (D6), VOA/QHS ratio 10:1", "value": "114 ± 5.6", "unit": "nM"},
      {"measurement": "IC50", "setting": "[1]; Plasmodium falciparum, D6, read-out: IC50 of each drug in combination VOA (3.0 μM) CQ (0.1 μM), S strain (D6), VOA/CQ ratio 30:1", "value": "223 ± 35.8", "unit": "nM"},
      {"measurement": "IC50", "setting": "[1]; Plasmodium falciparum, D6, read-out: IC50 of each drug in combination VOA (3.0 μM) QHS (0.1 μM), S strain (D6), VOA/QHS ratio 30:1", "value": "240 ± 45.3", "unit": "nM"}
    ]},
    {"compound": "Decarbomethoxyvoacamine [DCV]", "values": [
      {"measurement": "IC50", "setting": "[1]; [3]", "value": 490, "unit": "nM"}
    ]},
    {"compound": "Voacamidine [VDN]", "values": [
      {"measurement": "IC50", "setting": "[1]; [3]", "value": 510, "unit": "nM"}
    ]},
    {"compound": "CC[C@H]1C[C@@H]2CN3CCc4c([nH]c5ccccc45)[C@](C(=O)OC)(C2)[C@H]13", "note": "[COR, Coronaridine]", "values": [
      {"measurement": "IC50", "setting": "[1]; [4]", "value": 500, "unit": "nM"}
    ]},
    {"compound": "COc1ccc(CCN(C)CCCC(C#N)(c2ccc(OC)c(OC)c2)C(C)C)cc1OC", "note": "(centres unmarked) [verapamil]", "values": [
      {"measurement": "effect on malaria, drug alone", "setting": "Plasmodium falciparum", "value": "no effect"}
    ]},
    {"compound": "CCN(CC)CCCC(C)Nc1ccnc2cc(Cl)ccc12", "note": "(centres unmarked) [CQ, chloroquine, reference compound]", "values": [
      {"measurement": "IC50", "setting": "[1]; Plasmodium falciparum, D6, read-out: IC50, single drug", "value": "28.5 ± 3.5", "unit": "nM"},
      {"measurement": "IC50", "setting": "[1]; Plasmodium falciparum, D6, read-out: IC50 of each drug in combination VOA (1.0 μM) CQ (0.3 μM)", "value": "15.9 ± 2.7", "unit": "nM"},
      {"measurement": "IC50", "setting": "[1]; Plasmodium falciparum, D6, read-out: IC50 of each drug in combination VOA (2.0 μM) CQ (0.2 μM)", "value": "13.5 ± 2.9", "unit": "nM"},
      {"measurement": "IC50", "setting": "[1]; Plasmodium falciparum, D6, read-out: IC50 of each drug in combination VOA (3.0 μM) CQ (0.1 μM)", "value": "8.2 ± 1.5", "unit": "nM"}
    ]}
  ]
}
